According to article PMC3880596 (Journal of medicinal chemistry, 2013):

Target: recombinant BoNT/A LC (Clostridium botulinum, UniProt P0DPI0)
Sequence (P0DPI0 2-448 limits assumed): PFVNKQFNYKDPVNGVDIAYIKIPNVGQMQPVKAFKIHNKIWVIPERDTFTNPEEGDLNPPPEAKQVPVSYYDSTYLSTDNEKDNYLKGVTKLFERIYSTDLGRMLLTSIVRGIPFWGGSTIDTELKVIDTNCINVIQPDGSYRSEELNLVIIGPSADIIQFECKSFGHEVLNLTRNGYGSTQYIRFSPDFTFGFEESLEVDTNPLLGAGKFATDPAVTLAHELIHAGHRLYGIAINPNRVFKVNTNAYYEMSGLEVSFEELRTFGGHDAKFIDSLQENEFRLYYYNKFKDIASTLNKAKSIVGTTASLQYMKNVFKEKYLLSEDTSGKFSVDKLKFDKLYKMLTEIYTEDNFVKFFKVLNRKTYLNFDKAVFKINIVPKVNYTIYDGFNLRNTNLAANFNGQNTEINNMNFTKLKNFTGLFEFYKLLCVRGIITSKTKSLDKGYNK
Test: biochemical
Conditions: read-out: BoNT/A LC inhibition
With `Clc1ccc2c(NCCCNCc3ccccc3)ccnc2c1` [compound 7, N-Benzyl-N'-(7-chloroquinolin-4-yl)propane-1,3-diamine] the inhibition at 20 µM was > 50%.
For `Clc1ccc2c(NCCNCc3ccccc3)ccnc2c1` [compound 6, N-Benzyl-N'-(7-chloroquinolin-4-yl)ethane-1,2-diamine], the inhibition at 20 µM was > 50%.

Test system: P. falciparum Indochina W2 clone
Test: microbe, parasite or virus in culture
Type: cell-based, Plasmodium falciparum
Conditions: not given
With `Clc1ccc2c(NCCCNCc3ccccc3)ccnc2c1` [compound 7, N-Benzyl-N'-(7-chloroquinolin-4-yl)propane-1,3-diamine] the “selectivity index (IC50), SI = ICtox/ICP.f. activity, W2” value was 56/169/73.
In the case of `Clc1ccc2c(NCCCNCc3cccnc3)ccnc2c1` [compound 19, N-(7-Chloroquinolin-4-yl)-N'-(pyridin-3-ylmethyl)propane-1,3-diamine], the “selectivity index (IC50), SI = ICtox/ICP.f. activity, W2” value is reported as 90/ /317.
For `COc1ccncc1CNCCNc1ccnc2cc(Cl)ccc12` [compound 22, N-(7-Chloroquinolin-4-yl)-N'-[(4-methoxypyridin-3-yl)methyl]ethane-1,2-diamine], the “selectivity index (IC50), SI = ICtox/ICP.f. activity, W2” value was 435/4000/588.
With `Clc1ccc2c(NCCCNCc3ccncc3)ccnc2c1` [compound 17, N-(7-Chloroquinolin-4-yl)-N'-(pyridin-4-ylmethyl)propane-1,3-diamine] the “selectivity index (IC50), SI = ICtox/ICP.f. activity, W2” value was 176/4146/469.
With `Clc1ccc2c(NCCNCc3cccnc3)ccnc2c1` [compound 18, N-(7-Chloroquinolin-4-yl)-N'-(pyridin-3-ylmethyl)ethane-1,2-diamine] the “selectivity index (IC50), SI = ICtox/ICP.f. activity, W2” value was 426/1796/882.
With `COc1ccncc1CNCCCNc1ccnc2cc(Cl)ccc12` [compound 23, N-(7-Chloroquinolin-4-yl)-N'-[(4-methoxypyridin-3-yl)methyl]propane-1,3-diamine] the “selectivity index (IC50), SI = ICtox/ICP.f. activity, W2” value was 57/1040/93.
In the case of `Fc1ccc(CNCCNc2ccnc3cc(Cl)ccc23)cc1` [compound 12, N-(7-Chloroquinolin-4-yl)-N'-(4-fluorobenzyl)ethane-1,2-diamine], the “selectivity index (IC50), SI = ICtox/ICP.f. activity, W2” value is reported as 350/608/291.
For `COc1ccc(CNCCNc2ccnc3cc(Cl)ccc23)cc1` [compound 10, N-(7-Chloroquinolin-4-yl)-N'-(4-methoxybenzyl)ethane-1,2-diamine], the “selectivity index (IC50), SI = ICtox/ICP.f. activity, W2” value was 406/1806/362.
With `Clc1ccc2c(NCCCNCc3cnccc3Cl)ccnc2c1` [compound 21, N-[(4-Chloropyridin-3-yl)methyl]-N'-(7-chloroquinolin-4-yl)propane-1,3-diamine] the “selectivity index (IC50), SI = ICtox/ICP.f. activity, W2” value was 52/146/121.
For `Clc1ccc2c(NCCNCc3ccc(Br)cc3)ccnc2c1` [compound 14, N-(4-Bromobenzyl)-N'-(7-chloroquinolin-4-yl)ethane-1,2-diamine], the “selectivity index (IC50), SI = ICtox/ICP.f. activity, W2” value was 695/1606/660.
With `CC(C)(C)c1ccc(CNCCNc2ccnc3cc(Cl)ccc23)cc1` [compound 8, N-(4-Tert-butylbenzyl)-N'-(7-chloroquinolin-4-yl)ethane-1,2-diamine] the “selectivity index (IC50), SI = ICtox/ICP.f. activity, W2” value was 245/429/419.

Same assay, conditions: Plasmodium falciparum, W2, read-out: antimalarial activity IC90, CQR W2
Work on `Clc1ccc2c(NCCNCc3ccccc3)ccnc2c1` [compound 6, N-Benzyl-N'-(7-chloroquinolin-4-yl)ethane-1,2-diamine] yielded an IC90 of 14.1 nM.

Test system: P. falciparum African D6 clone
Test: microbe, parasite or virus in culture
Type: cell-based, Plasmodium falciparum
Conditions: not given
For `Clc1ccc2c(NCCCNCc3ccccc3)ccnc2c1` [compound 7, N-Benzyl-N'-(7-chloroquinolin-4-yl)propane-1,3-diamine], the “selectivity index (IC50), SI = ICtox/ICP.f. activity, D6” value was 56/169/73.
With `COc1ccncc1CNCCNc1ccnc2cc(Cl)ccc12` [compound 22, N-(7-Chloroquinolin-4-yl)-N'-[(4-methoxypyridin-3-yl)methyl]ethane-1,2-diamine] the “selectivity index (IC50), SI = ICtox/ICP.f. activity, D6” value was 435/4000/588.
For `Clc1ccc2c(NCCCNCc3ccncc3)ccnc2c1` [compound 17, N-(7-Chloroquinolin-4-yl)-N'-(pyridin-4-ylmethyl)propane-1,3-diamine], the “selectivity index (IC50), SI = ICtox/ICP.f. activity, D6” value was 176/4146/469.
For `Clc1ccc2c(NCCNCc3cccnc3)ccnc2c1` [compound 18, N-(7-Chloroquinolin-4-yl)-N'-(pyridin-3-ylmethyl)ethane-1,2-diamine], the “selectivity index (IC50), SI = ICtox/ICP.f. activity, D6” value was 426/1796/882.
In the case of `COc1ccncc1CNCCCNc1ccnc2cc(Cl)ccc12` [compound 23, N-(7-Chloroquinolin-4-yl)-N'-[(4-methoxypyridin-3-yl)methyl]propane-1,3-diamine], the “selectivity index (IC50), SI = ICtox/ICP.f. activity, D6” value is reported as 57/1040/93.
With `Fc1ccc(CNCCNc2ccnc3cc(Cl)ccc23)cc1` [compound 12, N-(7-Chloroquinolin-4-yl)-N'-(4-fluorobenzyl)ethane-1,2-diamine] the “selectivity index (IC50), SI = ICtox/ICP.f. activity, D6” value was 350/608/291.
With `COc1ccc(CNCCNc2ccnc3cc(Cl)ccc23)cc1` [compound 10, N-(7-Chloroquinolin-4-yl)-N'-(4-methoxybenzyl)ethane-1,2-diamine] the “selectivity index (IC50), SI = ICtox/ICP.f. activity, D6” value was 406/1806/362.
In the case of `Clc1ccc2c(NCCCNCc3cnccc3Cl)ccnc2c1` [compound 21, N-[(4-Chloropyridin-3-yl)methyl]-N'-(7-chloroquinolin-4-yl)propane-1,3-diamine], the “selectivity index (IC50), SI = ICtox/ICP.f. activity, D6” value is reported as 52/146/121.
In the case of `Clc1ccc2c(NCCNCc3ccc(Br)cc3)ccnc2c1` [compound 14, N-(4-Bromobenzyl)-N'-(7-chloroquinolin-4-yl)ethane-1,2-diamine], the “selectivity index (IC50), SI = ICtox/ICP.f. activity, D6” value is reported as 695/1606/660.
For `CC(C)(C)c1ccc(CNCCNc2ccnc3cc(Cl)ccc23)cc1` [compound 8, N-(4-Tert-butylbenzyl)-N'-(7-chloroquinolin-4-yl)ethane-1,2-diamine], the “selectivity index (IC50), SI = ICtox/ICP.f. activity, D6” value was 245/429/419.

Same assay, conditions: Plasmodium falciparum, D6, read-out: antimalarial activity IC50, CQS D6
For `Clc1ccc2c(NCCCNCc3ccncc3)ccnc2c1` [compound 17, N-(7-Chloroquinolin-4-yl)-N'-(pyridin-4-ylmethyl)propane-1,3-diamine], the IC50 was < 9 nM.
In the case of `COc1ccncc1CNCCCNc1ccnc2cc(Cl)ccc12` [compound 23, N-(7-Chloroquinolin-4-yl)-N'-[(4-methoxypyridin-3-yl)methyl]propane-1,3-diamine], the IC50 is reported as < 9 nM.
In the case of `Clc1ccc2c(NCCNCc3ccccc3)ccnc2c1` [compound 6, N-Benzyl-N'-(7-chloroquinolin-4-yl)ethane-1,2-diamine], the IC50 is reported as < 9 nM.

Test system: P. falciparum multidrug resistant C235 strain (Thailand)
Test: microbe, parasite or virus in culture
Type: cell-based, Plasmodium falciparum
Conditions: not given
For `Clc1ccc2c(NCCCNCc3ccccc3)ccnc2c1` [compound 7, N-Benzyl-N'-(7-chloroquinolin-4-yl)propane-1,3-diamine], the “selectivity index (IC50), SI = ICtox/ICP.f. activity, TM91C235” value was 56/169/73.
With `Clc1ccc2c(NCCCNCc3cccnc3)ccnc2c1` [compound 19, N-(7-Chloroquinolin-4-yl)-N'-(pyridin-3-ylmethyl)propane-1,3-diamine] the “selectivity index (IC50), SI = ICtox/ICP.f. activity, TM91C235” value was 90/ /317.
With `COc1ccncc1CNCCNc1ccnc2cc(Cl)ccc12` [compound 22, N-(7-Chloroquinolin-4-yl)-N'-[(4-methoxypyridin-3-yl)methyl]ethane-1,2-diamine] the “selectivity index (IC50), SI = ICtox/ICP.f. activity, TM91C235” value was 435/4000/588.
With `Clc1ccc2c(NCCCNCc3ccncc3)ccnc2c1` [compound 17, N-(7-Chloroquinolin-4-yl)-N'-(pyridin-4-ylmethyl)propane-1,3-diamine] the “selectivity index (IC50), SI = ICtox/ICP.f. activity, TM91C235” value was 176/4146/469.
For `Clc1ccc2c(NCCNCc3cccnc3)ccnc2c1` [compound 18, N-(7-Chloroquinolin-4-yl)-N'-(pyridin-3-ylmethyl)ethane-1,2-diamine], the “selectivity index (IC50), SI = ICtox/ICP.f. activity, TM91C235” value was 426/1796/882.
In the case of `COc1ccncc1CNCCCNc1ccnc2cc(Cl)ccc12` [compound 23, N-(7-Chloroquinolin-4-yl)-N'-[(4-methoxypyridin-3-yl)methyl]propane-1,3-diamine], the “selectivity index (IC50), SI = ICtox/ICP.f. activity, TM91C235” value is reported as 57/1040/93.
With `Fc1ccc(CNCCNc2ccnc3cc(Cl)ccc23)cc1` [compound 12, N-(7-Chloroquinolin-4-yl)-N'-(4-fluorobenzyl)ethane-1,2-diamine] the “selectivity index (IC50), SI = ICtox/ICP.f. activity, TM91C235” value was 350/608/291.
In the case of `COc1ccc(CNCCNc2ccnc3cc(Cl)ccc23)cc1` [compound 10, N-(7-Chloroquinolin-4-yl)-N'-(4-methoxybenzyl)ethane-1,2-diamine], the “selectivity index (IC50), SI = ICtox/ICP.f. activity, TM91C235” value is reported as 406/1806/362.
For `Clc1ccc2c(NCCCNCc3cnccc3Cl)ccnc2c1` [compound 21, N-[(4-Chloropyridin-3-yl)methyl]-N'-(7-chloroquinolin-4-yl)propane-1,3-diamine], the “selectivity index (IC50), SI = ICtox/ICP.f. activity, TM91C235” value was 52/146/121.
With `Clc1ccc2c(NCCNCc3ccc(Br)cc3)ccnc2c1` [compound 14, N-(4-Bromobenzyl)-N'-(7-chloroquinolin-4-yl)ethane-1,2-diamine] the “selectivity index (IC50), SI = ICtox/ICP.f. activity, TM91C235” value was 695/1606/660.
With `CC(C)(C)c1ccc(CNCCNc2ccnc3cc(Cl)ccc23)cc1` [compound 8, N-(4-Tert-butylbenzyl)-N'-(7-chloroquinolin-4-yl)ethane-1,2-diamine] the “selectivity index (IC50), SI = ICtox/ICP.f. activity, TM91C235” value was 245/429/419.

Test system: not listed separately
Test: in vitro
Conditions: human, microsomes, pH 7.4
For `Clc1ccc2c(NCCCNCc3ccccc3)ccnc2c1` [compound 7, N-Benzyl-N'-(7-chloroquinolin-4-yl)propane-1,3-diamine], the half-life was ≥ 1 h.
In the case of `Clc1ccc2c(NCCCNCc3cccnc3)ccnc2c1` [compound 19, N-(7-Chloroquinolin-4-yl)-N'-(pyridin-3-ylmethyl)propane-1,3-diamine], the half-life is reported as ≥ 1 h.
With `COc1ccncc1CNCCCNc1ccnc2cc(Cl)ccc12` [compound 23, N-(7-Chloroquinolin-4-yl)-N'-[(4-methoxypyridin-3-yl)methyl]propane-1,3-diamine] the half-life was ≥ 1 h.
For `Clc1ccc2c(NCCNCc3ccc(Br)cc3)ccnc2c1` [compound 14, N-(4-Bromobenzyl)-N'-(7-chloroquinolin-4-yl)ethane-1,2-diamine], the half-life was ≥ 1 h.

Test system: not listed separately
Test: in vitro
Conditions: mouse, microsomes, pH 7.4
With `Clc1ccc2c(NCCCNCc3ccccc3)ccnc2c1` [compound 7, N-Benzyl-N'-(7-chloroquinolin-4-yl)propane-1,3-diamine] the half-life was ≥ 1 h.
For `Clc1ccc2c(NCCCNCc3cccnc3)ccnc2c1` [compound 19, N-(7-Chloroquinolin-4-yl)-N'-(pyridin-3-ylmethyl)propane-1,3-diamine], the half-life was ≥ 1 h.
In the case of `COc1ccncc1CNCCCNc1ccnc2cc(Cl)ccc12` [compound 23, N-(7-Chloroquinolin-4-yl)-N'-[(4-methoxypyridin-3-yl)methyl]propane-1,3-diamine], the half-life is reported as ≥ 1 h.
With `Clc1ccc2c(NCCNCc3ccc(Br)cc3)ccnc2c1` [compound 14, N-(4-Bromobenzyl)-N'-(7-chloroquinolin-4-yl)ethane-1,2-diamine] the half-life was ≥ 1 h.
